Assay results taken from patent US20260191968A1, “PROTAC DEGRADERS OF MLLT1 AND/OR MLLT3” (DARK BLUE THERAPEUTICS LTD, priority 2024, published 2026).

Biological target: T1, MLLT1 (Homo sapiens, UniProt Q03111)
T1 construct: host or cells: MV4-11
T1 sequence (Q03111 1-559): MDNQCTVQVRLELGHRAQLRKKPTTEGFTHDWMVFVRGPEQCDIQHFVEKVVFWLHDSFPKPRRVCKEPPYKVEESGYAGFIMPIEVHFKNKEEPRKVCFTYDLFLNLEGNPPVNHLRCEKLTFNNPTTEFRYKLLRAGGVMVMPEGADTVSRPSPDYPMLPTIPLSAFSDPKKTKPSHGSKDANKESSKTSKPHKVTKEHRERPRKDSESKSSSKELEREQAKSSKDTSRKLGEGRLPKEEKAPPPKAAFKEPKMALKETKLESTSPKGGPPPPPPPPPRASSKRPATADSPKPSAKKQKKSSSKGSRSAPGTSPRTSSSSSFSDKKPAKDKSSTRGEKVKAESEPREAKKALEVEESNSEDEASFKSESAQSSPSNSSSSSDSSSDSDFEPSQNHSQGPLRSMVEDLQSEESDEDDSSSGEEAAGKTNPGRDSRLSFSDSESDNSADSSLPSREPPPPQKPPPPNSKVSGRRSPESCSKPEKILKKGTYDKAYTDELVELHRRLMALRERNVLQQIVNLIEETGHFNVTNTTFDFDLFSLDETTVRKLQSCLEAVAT
Test: MLLT1 degradation assay in MV4-11 cells (JESS chemiluminescent detection), three concentrations, 24 h
Assay type: cell-based
Conditions: with respect to DMSO control
Summary of the method: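 Read-out is % MLLT1 degradation versus DMSO, from band peak areas on a JESS chemiluminescent system. Cells (MV4-11) were exposed for 24 h at 37° C to three compound levels, 10, 100 and 1000 nM, in 0.1% DMSO.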

| SMILES | MLLT1% Degradation @ 0.01 μM | MLLT1% Degradation @ 0.1 μM | MLLT1% Degradation @ 1 μM |
| --- | --- | --- | --- |
| CN1CCC[C@@H]1c1cc2cnc(NC(=O)c3ccc(OCC4CC5(CCN(c6cccc7c6CN(C6CCC(=O)NC6=O)C7=O)CC5)C4)cc3F)cc2[nH]1 (stereo partly drawn) [Example 201, 4-((7-(2-(2,6-dioxopiperidin-3-yl)-1-oxoisoindolin-4-yl)-7-azaspiro[3.5]nonan-2-yl)methoxy)-2-fluoro-N-(2-((R)-1-methylpyrrolidin-2-yl)-1H-pyrrolo[3,2-c]pyridin-6-yl)benzamide] | B (Category B: 50% ≤ B < 75% degradation) | A (Category A: A ≥ 75% degradation) | A (Category A: A ≥ 75% degradation) |
| CN1CCC[C@@H]1c1cc2cnc(NC(=O)c3ccc(CCCC#Cc4cccc5c4C(=O)N(C4CCC(=O)NC4=O)C5=O)cc3)cc2[nH]1 (stereo partly drawn) [Example 110, 4-(5-(2-(2,6-dioxopiperidin-3-yl)-1,3-dioxoisoindolin-4-yl)pent-4-yn-1-yl)-N-(2-((R)-1-methylpyrrolidin-2-yl)-1H-pyrrolo[3,2-c]pyridin-6-yl)benzamide] | C (Category C: 25% ≤ C < 50% degradation) | A (Category A: A ≥ 75% degradation) | A (Category A: A ≥ 75% degradation) |
| CN1CCC[C@@H]1c1cc2cnc(NC(=O)c3ccc(N4CCN(CC5CCN(c6ccc7c(c6)C(=O)N(C6CCC(=O)NC6=O)C7=O)CC5)CC4)cc3)cc2[nH]1 (stereo partly drawn) [Example 221, 4-(4-((1-(2-(2,6-dioxopiperidin-3-yl)-1,3-dioxoisoindolin-5-yl)piperidin-4-yl)methyl)piperazin-1-yl)-N-(2-((R)-1-methylpyrrolidin-2-yl)-1H-pyrrolo[3,2-c]pyridin-6-yl)benzamide] | C (Category C: 25% ≤ C < 50% degradation) | B (Category B: 50% ≤ B < 75% degradation) | B (Category B: 50% ≤ B < 75% degradation) |
| CN1CCC[C@@H]1c1cc2cnc(NC(=O)c3ccc(N4CCC(OCC5CCN(c6cccc7c6CN(C6CCC(=O)NC6=O)C7=O)CC5)CC4)cc3)cc2[nH]1 (stereo partly drawn) [Example 146, 4-(4-((1-(2-(2,6-dioxopiperidin-3-yl)-1-oxoisoindolin-4-yl)piperidin-4-yl)methoxy)piperidin-1-yl)-N-(2-((R)-1-methylpyrrolidin-2-yl)-1H-pyrrolo[3,2-c]pyridin-6-yl)benzamide] | B (Category B: 50% ≤ B < 75% degradation) | B (Category B: 50% ≤ B < 75% degradation) | B (Category B: 50% ≤ B < 75% degradation) |
| CN1CCC[C@@H]1c1cc2cnc(NC(=O)c3ccc(N4CCN(C(=O)CCC5CCN(c6cccc7c6CN(C6CCC(=O)NC6=O)C7=O)CC5)CC4)cc3)cc2[nH]1 (stereo partly drawn) [Example 189, 4-(4-(3-(1-(2-(2,6-dioxopiperidin-3-yl)-1-oxoisoindolin-4-yl)piperidin-4-yl)propanoyl)piperazin-1-yl)-N-(2-((R)-1-methylpyrrolidin-2-yl)-1H-pyrrolo[3,2-c]pyridin-6-yl)benzamide] | B (Category B: 50% ≤ B < 75% degradation) | B (Category B: 50% ≤ B < 75% degradation) | C (Category C: 25% ≤ C < 50% degradation) |
| COc1nc(N2CCN(CC3CCN(c4cccc5c4CN(C4CCC(=O)NC4=O)C5=O)CC3)CC2)ccc1C(=O)Nc1cc2[nH]c([C@H]3CCCN3C)cc2cn1 (stereo partly drawn) [Example 126, 6-(4-((1-(2-(2,6-dioxopiperidin-3-yl)-1-oxoisoindolin-4-yl)piperidin-4-yl)methyl)piperazin-1-yl)-2-methoxy-N-(2-((R)-1-methylpyrrolidin-2-yl)-1H-pyrrolo[3,2-c]pyridin-6-yl) nicotinamide] | C (Category C: 25% ≤ C < 50% degradation) | C (Category C: 25% ≤ C < 50% degradation) | C (Category C: 25% ≤ C < 50% degradation) |
| CN1CCC[C@@H]1c1cc2cnc(NC(=O)c3ccc(N4CC[C@H](CC#Cc5cccc6c5CN(C5CCC(=O)NC5=O)C6=O)C4)nc3)cc2[nH]1 (stereo partly drawn) [Example 187, 6-((3S)-3-(3-(2-(2,6-dioxopiperidin-3-yl)-1-oxoisoindolin-4-yl)prop-2-yn-1-yl)pyrrolidin-1-yl)-N-(2-((R)-1-methylpyrrolidin-2-yl)-1H-pyrrolo[3,2-c]pyridin-6-yl)nicotinamide] | B (Category B: 50% ≤ B < 75% degradation) | B (Category B: 50% ≤ B < 75% degradation) | B (Category B: 50% ≤ B < 75% degradation) |
| CN1CCC[C@@H]1c1cc2cnc(NC(=O)c3ccc(N4CCC(OC5CCN(c6cccc7c6C(=O)N(C6CCC(=O)NC6=O)C7=O)CC5)CC4)cc3)cc2[nH]1 (stereo partly drawn) [Example 136, 4-(4-((1-(2-(2,6-dioxopiperidin-3-yl)-1,3-dioxoisoindolin-4-yl)piperidin-4-yl)oxy)piperidin-1-yl)-N-(2-((R)-1-methylpyrrolidin-2-yl)-1H-pyrrolo[3,2-c]pyridin-6-yl)benzamide] | C (Category C: 25% ≤ C < 50% degradation) | B (Category B: 50% ≤ B < 75% degradation) | B (Category B: 50% ≤ B < 75% degradation) |
| CN1CCC[C@@H]1c1cc2cnc(NC(=O)c3ccc(N4CCC5(CC4)CCN(c4cccc6c4CN(C4CCC(=O)NC4=O)C6=O)CC5)cc3F)cc2[nH]1 (stereo partly drawn) [Example 202, 4-(9-(2-(2,6-dioxopiperidin-3-yl)-1-oxoisoindolin-4-yl)-3,9-diazaspiro[5.5]undecan-3-yl)-2-fluoro-N-(2-((R)-1-methylpyrrolidin-2-yl)-1H-pyrrolo[3,2-c]pyridin-6-yl)benzamide] | D (Category D: D < 25% degradation) | C (Category C: 25% ≤ C < 50% degradation) | C (Category C: 25% ≤ C < 50% degradation) |
| CN1CCCC1c1cc2cnc(NC(=O)c3ccc(OCC#Cc4cccc5c4CN(C4CCC(=O)NC4=O)C5=O)cn3)cc2[nH]1 (stereo not drawn) [Example 50, 5-[3-[2-(2,6-dioxo-3-piperidyl)-1-oxo-isoindolin-4-yl]prop-2-ynoxy]-N-[2-(1-methylpyrrolidin-2-yl)-1H-pyrrolo[3,2-c]pyridin-6-yl]pyridine-2-carboxamide] | B (Category B: 50% ≤ B < 75% degradation) | B (Category B: 50% ≤ B < 75% degradation) | B (Category B: 50% ≤ B < 75% degradation) |
| CN1CCC[C@@H]1c1cc2cnc(NC(=O)c3ccc(N4CC(CN5CCN(c6ccc7c(c6)C(=O)N(C6CCC(=O)NC6=O)C7=O)CC5)C4)cc3)cc2[nH]1 (stereo partly drawn) [Example 183, 4-(3-((4-(2-(2,6-dioxopiperidin-3-yl)-1,3-dioxoisoindolin-5-yl)piperazin-1-yl)methyl)azetidin-1-yl)-N-(2-((R)-1-methylpyrrolidin-2-yl)-1H-pyrrolo[3,2-c]pyridin-6-yl)benzamide] | C (Category C: 25% ≤ C < 50% degradation) | B (Category B: 50% ≤ B < 75% degradation) | B (Category B: 50% ≤ B < 75% degradation) |
| CN1CCC[C@@H]1c1cc2cnc(NC(=O)c3ccc(OCCC4CCN(c5cccc6c5CN(C5CCC(=O)NC5=O)C6=O)CC4)cc3)cc2[nH]1 (stereo in doubt) [Example 80, 4-(2-(1-(2-((rel-S)-2,6-dioxopiperidin-3-yl)-1-oxoisoindolin-4-yl)piperidin-4-yl)ethoxy)-N-(2-((R)-1-methylpyrrolidin-2-yl)-1H-pyrrolo[3,2-c]pyridin-6-yl)benzamide] | A (Category A: A ≥ 75% degradation) | A (Category A: A ≥ 75% degradation) | A (Category A: A ≥ 75% degradation) |
| CN1CCC[C@@H]1c1cc2cnc(NC(=O)c3ccc(N4CCC(OC5CCN(c6ccc7c(c6)CN(C6CCC(=O)NC6=O)C7=O)CC5)CC4)nc3)cc2[nH]1 (stereo partly drawn) [Example 139, 6-(4-((1-(2-(2,6-dioxopiperidin-3-yl)-1-oxoisoindolin-5-yl)piperidin-4-yl)oxy)piperidin-1-yl)-N-(2-((R)-1-methylpyrrolidin-2-yl)-1H-pyrrolo[3,2-c]pyridin-6-yl)nicotinamide] | B (Category B: 50% ≤ B < 75% degradation) | B (Category B: 50% ≤ B < 75% degradation) | B (Category B: 50% ≤ B < 75% degradation) |
| CN1CCC[C@@H]1c1cc2cnc(NC(=O)c3ccc(CCCCC#Cc4cc5c(cc4F)C(=O)N(C4CCC(=O)NC4=O)C5)cc3F)cc2[nH]1 (stereo partly drawn) [Example 114, 4-(6-(2-(2,6-dioxopiperidin-3-yl)-6-fluoro-1-oxoisoindolin-5-yl)hex-5-yn-1-yl)-2-fluoro-N-(2-((R)-1-methylpyrrolidin-2-yl)-1H-pyrrolo[3,2-c]pyridin-6-yl)benzamide] | D (Category D: D < 25% degradation) | C (Category C: 25% ≤ C < 50% degradation) | C (Category C: 25% ≤ C < 50% degradation) |
